# Tested on: fungal tyrosinase
# Assay: in vitro inhibition test of the activity of tyrosinase (dopachrome formation, 475 nm)
# Assay type: biochemical
# Conditions: inhibitor at 50 mol % with respect to tyrosine; lowering of maximum dopachrome (OD 475 nm at plateau) vs no inhibitor; pH 6.5, 25° C.
# Excerpt: According to this test, the amount of dopachrome formed during the chain of reactions of conversion of tyrosine to melanins is monitored by visible spectrometry at 475 nm.
# The concentration of dopachrome formed with time in the presence and in the absence of the inhibitor thus measured.
# The inhibitor concentrations are set at 50 mol % with respect to the concentration of tyrosine in the reaction medium.
# The inhibition effect is expressed by the lowering in the maximum amount of dopachrome formed (optical density value at 475 nm read at the plateau of the curve) with respect to the amount obtained in the absence of inhibitor.
# A - 0.1M Phosphate buffer, pH=6.5 (1% Tween 20)
# B - 2.10^-3 M Mother solution of L-tyrosine in A
# C - 10^-4 M Mother solution of L-dopa in A
# D - Mother solution of fungal tyrosinase in A containing 2,400 units/ml
# E - 10^-2 M Mother solution of the inhibitor in A (Solutions C and D are to be prepared on the day)
# reference cell: 3 ml of A
# homogenize and equilibrate at 25° C.
# mix rapidly and observe the kinetics by measuring the absorbence at 475 nm as a function of time.
row,SMILES,% change in maximum dopachrome vs no inhibitor
1,CCSc1ccc(O)cc1O,-88%
2,Oc1ccc(SCc2ccccc2)c(O)c1,-95%
3,"Oc1ccc(O)cc1 [hydroquinone, reference compound]",-33%
4,CC(C)Sc1ccc(O)cc1O,-84%

# The next lines start with the values.
row,% change in maximum dopachrome vs no inhibitor,SMILES
1,-65%,Oc1ccc(SCCCN2CCOCC2)c(O)c1
2,-76%,CCCSc1ccc(O)cc1O
3,-90%,CSc1ccc(O)cc1O
4,-94%,CCOC(=O)CSc1ccc(O)cc1O
5,-79%,Oc1ccc(SCCSc2ccc(O)cc2O)c(O)c1
